Source: patent US20250064932A1, “GLYCO-ENGINEERED CAR-T CELLS” (VIB VZW, priority 2021, published 2025)
Like-named read-outs stand apart in the source and are kept apart here.

What was measured:
CD4+ T cell = details: cited from earlier work
[1] = tested on: human lymphocytes and neutrophils; details: up to 1% v/v DMSO, PMA for 4 hours; cited from earlier work
lymphoma cell = details: cited from earlier work
human CD8+ T cells = details: for T cell proliferation: IL-2
Description: Human CD8^+ T cells were purified and incubated with human T cell-activator CD3/CD28 dynabeads for T cell expansion and activation, and this in the presence of different cytokine combinations and increasing concentrations of DMSO. In order to evaluate the effect of DMSO on the proliferation of T cells in culture, cells were labeled with Tag-it Violet™ proliferation and cell tracking dye. […] Flow cytometry analysis was performed on multiple days following start up until day 11 in culture in order to evaluate T cell activation and differentiation markers.
(§1) For human T cell phenotyping, cells were labeled with fluorescent antibodies against human CD8, CD62L and CD45RA (BD Biosciences) and CD3, CD4, CD25, CD69, CD197 (CCR7), TIM-3 (CD366), CD152 (CTLA4) and CD279 (PD-1) (Biolegend). A Fixable dye eFluor™ 780 (eBioscience) was used to evaluate live/dead cells.
Peripheral blood lymphocytes were prepared by a Ficoll-Paque density centrifugation as described in the instruction manual for Leucosep™ (Greiner bio-one). CD8^+ T cells were isolated by negative selection (MojoSort™ Human CD8 T cell Isolation kit, Biolegend) according to the manufacture's protocol. Cells were cultured in RPMI 1640 medium (Gibco-BRL) supplemented with L-glutamine (0.03%, Gibco), 0.4 mM sodiumpyruvate (Merck Millipore) and 50 μM β-mercapto-ethanol (Sigma Aldrich) and 10% heat-inactivated fetal calf serum (FCS), in 48 well plates (Sarstedt) and stimulated with human anti-CD3/CD28 Dynabeads (1 bead:3 cell ratio) (Thermo Fisher Scientific) for 4 days at 37° C. Prior to cell seeding, Dynabeads and bead-bound cells were removed by separation on a magnet (after transfer to an Eppendorf tube) and the supernatant containing the CD8^+ T cells was collected. Cells were washed twice with PBS before putting them in culture with different cytokine combinations: (1) recombinant human (rh) IL-2 at 50 units/mL (Life Technologies); (2) rhIL-7 at 10 ng/mL (R&D systems) and rhIL-15 at 1 ng/mL (Miltenyi). Cytokines and medium were replaced every 2-3 days. Where indicated, increasing concentrations of DMSO (Sigma) were added as given by % v/v.
(§2) Human T cells were stained with Tag-it Violet™ Proliferation and Cell Tracking Dye (Biolegend), according to manufacturer's protocol.

[2] = DMSO treated vs untreated, day 11, 1.2% DMSO

Excerpt for human CD3+ T cells: A protocol for in vitro isolation of CD3^+ T cell population used herein includes stimulation of purified human CD3^+ T cells in the presence of IL-12 and culturing in the presence of either IL-2 or IL-7/-15. This cultivation method provides for CD3^+ T cells populations skewed towards a naive phenotype. […] To this end, we validated the effect of DMSO on the activation and differentiation of CD3^+ T cells in the presence of IL-12 and subsequent culturing with different cytokine combinations.
We therefore evaluated the impact of increasing DMSO concentrations on the immunophenotype at day 14, and the impact of the highest DMSO concentration (1.2%) on the immunophenotype of CD3^+ T cell (sub)populations at day 13.
as §1
Leukocyte-enriched buffy coat samples were obtained from healthy donors attending the Red Cross center after informed consent and ethical committee approval (EC2019-1083). Peripheral blood lymphocytes were prepared by a Ficoll-Paque density centrifugation as described in the instruction manual for Leucosep™ (Greiner bio-one). CD3^+ T cells were isolated by negative selection (MojoSort™ Human CD3 T cell selection kit, Biolegend) according to the manufacture's protocol. Cells were cultured in IMDM+Glutamax medium (Gibco-BRL) supplemented with 10% heat-inactivated fetal calf serum (FCS) and stimulated with Immunocult™ Human CD3/CD28 T-Cell Activator (Stemcell Technologies) (25 μL/10^6 cells) for 3 days at 37° C. in the presence of 10 ng/mL IL-12 (Biolegend). Prior to cell seeding, cells were washed twice with PBS before putting them in culture with different cytokine combinations: (1) recombinant human (rh) IL-2 at 50 units/mL (Miltenyi); (2) rhIL-7 at 10 ng/mL (Miltenyi) and rhIL-15 at 10 ng/mL (Miltenyi). Cytokines and medium were replaced every 2-3 days. Cell densities were maintained between 1×10^6 and 3×10^6 cells/mL. Where indicated, increasing concentrations of DMSO (Sigma) were added as given by % v/v.
as §2

With `C[S+](C)[O-]` [DMSO, Dimethyl sulfoxide] the “cell surface marker expression (CD25, CD69, PD-1)” value (human CD3+ T cells; 1.2% DMSO) was “cell surface marker expression is increased”, the “frequency of CD25 and CD69 positive cells” value (human CD3+ T cells; 1.2% DMSO, IL-7 and IL-15, day 13) was “increases in the presence of DMSO” and the “CD3+ T cell differentiation” value (human CD3+ T cells; 1.2% DMSO, day 13) was “skews CD3^+ T cell differentiation towards a central memory phenotype”. The “proportion of cells expressing PD-1” value (human CD3+ T cells; 1.2% DMSO, day 13) was “seems to slightly increase”, the “TCM population of CD8+ T cells” value (human CD3+ T cells; 1.2% DMSO, about 20% in the untreated condition) was “over 80%” and the “expression of activation and exhaustion markers (CD25, CD69, PD-1)” value (human CD3+ T cells; DMSO up to 0.6%) was “does not alter the expression of activation and exhaustion markers”. For the same compound, the “CD3+ T cell survival and subset distribution” value (human CD3+ T cells; human, 13 day, 1.2 % v/v) was “did not impact CD3^+ T cell survival nor CD4′/CD8′ subset distribution”, the “CD3+ T cell survival and proliferation” value (human CD3+ T cells; human, 14 day) was “did not impact CD3^+ T cell survival and proliferation” and the “impact on CD4+ T cell differentiation” value (human CD3+ T cells; increasing DMSO) was “less pronounced”. The “CD4+/CD8+ subset distribution” value (human CD3+ T cells; increasing DMSO, day 14) was “does not have an impact on the subset distribution”, the “DMSO concentrations that suppress CD4+ T cell activation, cell growth and cytokine secretion” value (CD4+ T cell) was 0.1-1% and the “IFN-γ and TNF-α production in the cytoplasm” value [1] was “did not change IFN-γ and TNF-α production”. For the same compound, the “DMSO concentrations at which lymphoma cell death is prevented” value (lymphoma cell) was 1-2%, the “effect on survival of the cells” value (human CD8+ T cells) was “does not have a negative effect on survival” and the survival rate (human CD8+ T cells) was “small increases in survival rate”. For the same compound, the T cell proliferation (human CD8+ T cells; 0.6% DMSO) was “still tolerated”, the T cell proliferation (human CD8+ T cells; 1.2% DMSO) was “marked decrease in T cell proliferation” and the “CD8+ T cell differentiation” value (human CD8+ T cells; CD8+ T cells purified from the same donor, IL-12 stimulation, IL-7 and IL-15, 1.2% DMSO, day 13) was “clearly skewed from naïve-like towards a TCM phenotype”. The “expression level of CD25” value (human CD8+ T cells; [2]) was “lower”, the “expression of CD69” value (human CD8+ T cells; [2]) was “higher” and the “decrease in proportion of CD8+ T cells expressing TIM-3” value (human CD8+ T cells; IL-2, increasing DMSO) was ~4%. For the same compound, the “proportion of cells expressing PD-1 after stimulation” value (human CD8+ T cells; IL-2, increasing DMSO) was “seems to decrease faster by day 7”, the T cell differentiation (human CD8+ T cells; IL-7 and IL-15) was “preferentially differentiate towards a TCM phenotype” and the “DMSO concentration with inhibitory effect on T cell proliferation” value (human CD8+ T cells; IL-7 and IL-15, prolonged culture) was ≥ 0.6%. The TIM-3 expression level (human CD8+ T cells; fluorescence intensity, in the presence of DMSO) was “markedly reduced”, the “frequency of CD25 positive cells” value (human CD8+ T cells; increasing DMSO (0.1%-1.2%)) was “decreases in time and with increasing DMSO concentration” and the “proportion of CD69 positive cells” value (human CD8+ T cells; increasing DMSO (0.1%-1.2%)) was “increases with increasing concentrations of DMSO”. The “T cell differentiation subsets” value (human CD8+ T cells; increasing DMSO, most clear with IL-2, day 11) was “a decrease in naive and effector CD8^+ T cells in favor of an increase in memory T cells”.
